{"source": "ChEMBL document CHEMBL1140916", "about": "“Structure-activity relationship of new anti-hepatitis C virus agents: heterobicycle-coumarin conjugates” (J Med Chem, 2009)", "key": {"[1]": {"assay": "Cytotoxicity against HCV infected human Huh5-2 cells assessed as microscopically detectable alteration in cell morphology after 3 days", "type": "cell-based, Huh-5-2", "details": "HCV infected Huh5-2 cells"}, "Hepatitis C virus": {"tested_on": "Hepatitis C virus", "assay": "Antiviral activity against HCV infected in human Huh5-2 cells assessed as reduction of virus-induced cytopathogenicity after 4 days", "type": "functional, organism-based, Hepacivirus hominis", "details": "Huh-5-2, 96 h"}, "[2]": {"assay": "Selectivity index, ratio of CC50 for human Huh 5-2 cells to EC50 for HCV"}}, "data": [{"compound": "COc1cccc2cc(CSc3nc4ccccc4n3[C@H]3C[C@@H](OC(C)=O)[C@H](OC(C)=O)[C@@H](COC(C)=O)O3)c(=O)oc12", "values": [{"measurement": "CC50 at 72 h", "setting": "[1]", "result": 26, "unit": "µM"}, {"measurement": "EC50", "setting": "Hepatitis C virus", "result": 12, "unit": "µM"}, {"measurement": "Ratio CC50/EC50", "setting": "[2]", "result": 2.2}]}, {"compound": "CC(=O)OC[C@H]1O[C@@H](n2c(SCc3ccc([N+](=O)[O-])cc3)nc3ccccc32)[C@H](OC(C)=O)[C@@H](OC(C)=O)[C@@H]1OC(C)=O", "values": [{"measurement": "CC50 at 72 h", "setting": "[1]", "result": 83, "unit": "µM"}, {"measurement": "EC50", "setting": "Hepatitis C virus", "result": 63, "unit": "µM"}, {"measurement": "Ratio CC50/EC50", "setting": "[2]", "result": 1.3}]}, {"compound": "O=c1oc2ccccc2cc1CSc1nc2cncnc2[nH]1", "values": [{"measurement": "CC50 at 72 h", "setting": "[1]", "result": 109, "unit": "µM"}, {"measurement": "EC50", "setting": "Hepatitis C virus", "result": 2, "unit": "µM"}, {"measurement": "Ratio CC50/EC50", "setting": "[2]", "result": 54}]}, {"compound": "O=c1oc2ccc(Br)cc2cc1CSc1nc2cccnc2[nH]1", "values": [{"measurement": "CC50 at 72 h", "setting": "[1]", "result": 128, "unit": "µM"}, {"measurement": "EC50", "setting": "Hepatitis C virus", "result": 6.8, "unit": "µM"}, {"measurement": "Ratio CC50/EC50", "setting": "[2]", "result": 19}]}, {"compound": "Cc1ccc2[nH]c(SCc3ccncc3)nc2c1", "values": [{"measurement": "CC50 at 72 h", "setting": "[1]", "result": 199, "unit": "µM"}, {"measurement": "EC50", "setting": "Hepatitis C virus", "result": 199, "unit": "µM"}, {"measurement": "Ratio CC50/EC50", "setting": "[2]", "result": 1}]}, {"compound": "CC(=O)OC[C@H]1O[C@@H](n2c(=S)[nH]c3ccccc32)[C@H](OC(C)=O)[C@@H](OC(C)=O)[C@@H]1OC(C)=O", "values": [{"measurement": "CC50 at 72 h", "setting": "[1]", "result": 104, "unit": "µM"}, {"measurement": "EC50", "setting": "Hepatitis C virus", "result": 104, "unit": "µM"}, {"measurement": "Ratio CC50/EC50", "setting": "[2]", "result": 1}]}, {"compound": "O=c1oc2ccccc2cc1CSc1nc2cccnc2[nH]1", "values": [{"measurement": "CC50 at 72 h", "setting": "[1]", "result": 95, "unit": "µM"}, {"measurement": "EC50", "setting": "Hepatitis C virus", "result": 59, "unit": "µM"}, {"measurement": "Ratio CC50/EC50", "setting": "[2]", "result": 1.6}]}, {"compound": "c1ccc2cc(CSc3nc4ccccc4[nH]3)ccc2c1", "values": [{"measurement": "CC50 at 72 h", "setting": "[1]", "result": 56, "unit": "µM"}, {"measurement": "EC50", "setting": "Hepatitis C virus", "result": 76, "unit": "µM"}, {"measurement": "Ratio CC50/EC50", "setting": "[2]", "result": 0.73}]}, {"compound": "Fc1ccc2[nH]c(SCc3ccccc3)nc2c1", "values": [{"measurement": "CC50 at 72 h", "setting": "[1]", "result": 197, "unit": "µM"}, {"measurement": "EC50", "setting": "Hepatitis C virus", "result": 197, "unit": "µM"}, {"measurement": "Ratio CC50/EC50", "setting": "[2]", "result": 1}]}, {"compound": "Clc1cc2nc(SCc3ccncc3)[nH]c2cc1Cl", "values": [{"measurement": "CC50 at 72 h", "setting": "[1]", "result": 107, "unit": "µM"}, {"measurement": "EC50", "setting": "Hepatitis C virus", "result": 100, "unit": "µM"}, {"measurement": "Ratio CC50/EC50", "setting": "[2]", "result": 1.1}]}, {"compound": "O=c1oc2ccccc2cc1CSc1nc2ccccc2[nH]1", "values": [{"measurement": "CC50 at 72 h", "setting": "[1]", "result": 90, "unit": "µM"}, {"measurement": "EC50", "setting": "Hepatitis C virus", "result": 27, "unit": "µM"}, {"measurement": "Ratio CC50/EC50", "setting": "[2]", "result": 3.4}]}, {"compound": "COc1cccc2cc(CSc3nc4ccccc4[nH]3)c(=O)oc12", "values": [{"measurement": "CC50 at 72 h", "setting": "[1]", "result": 27, "unit": "µM"}, {"measurement": "EC50", "setting": "Hepatitis C virus", "result": 10, "unit": "µM"}, {"measurement": "Ratio CC50/EC50", "setting": "[2]", "result": 2.8}]}, {"compound": "O=c1oc2ccccc2cc1CSc1nc2ccccc2s1", "values": [{"measurement": "CC50 at 72 h", "setting": "[1]", "result": 153, "unit": "µM"}, {"measurement": "EC50", "setting": "Hepatitis C virus", "result": 80, "unit": "µM"}, {"measurement": "Ratio CC50/EC50", "setting": "[2]", "result": 1.9}]}, {"compound": "O=c1oc2ccc(Br)cc2cc1CSc1nc2ccccc2o1", "values": [{"measurement": "CC50 at 72 h", "setting": "[1]", "result": 131, "unit": "µM"}, {"measurement": "EC50", "setting": "Hepatitis C virus", "result": 12, "unit": "µM"}, {"measurement": "Ratio CC50/EC50", "setting": "[2]", "result": 11}]}, {"compound": "COc1cccc2cc(CSc3nc4ccccc4s3)c(=O)oc12", "values": [{"measurement": "CC50 at 72 h", "setting": "[1]", "result": 40, "unit": "µM"}, {"measurement": "EC50", "setting": "Hepatitis C virus", "result": 29, "unit": "µM"}, {"measurement": "Ratio CC50/EC50", "setting": "[2]", "result": 1.4}]}, {"compound": "O=c1oc2ccccc2cc1CSc1nc2ccccc2o1", "values": [{"measurement": "CC50 at 72 h", "setting": "[1]", "result": 45, "unit": "µM"}, {"measurement": "EC50", "setting": "Hepatitis C virus", "result": 12, "unit": "µM"}, {"measurement": "Ratio CC50/EC50", "setting": "[2]", "result": 3.9}]}, {"compound": "COc1cccc2cc(CSc3nc4cncnc4[nH]3)c(=O)oc12", "values": [{"measurement": "CC50 at 72 h", "setting": "[1]", "result": 94, "unit": "µM"}, {"measurement": "EC50", "setting": "Hepatitis C virus", "result": 20, "unit": "µM"}, {"measurement": "Ratio CC50/EC50", "setting": "[2]", "result": 4.8}]}, {"compound": "CC(=O)OC[C@H]1O[C@@H](n2c(SCc3cc4cc(Br)ccc4oc3=O)nc3ccccc32)C[C@@H](OC(C)=O)[C@@H]1OC(C)=O", "values": [{"measurement": "CC50 at 72 h", "setting": "[1]", "result": 16, "unit": "µM"}, {"measurement": "EC50", "setting": "Hepatitis C virus", "result": 4.1, "unit": "µM"}, {"measurement": "Ratio CC50/EC50", "setting": "[2]", "result": 4}]}, {"compound": "CC(=O)OC[C@H]1O[C@@H](n2c(SCc3cc4cc(Br)ccc4oc3=O)nc3cc(Cl)c(Cl)cc32)C[C@@H](OC(C)=O)[C@@H]1OC(C)=O", "values": [{"measurement": "CC50 at 72 h", "setting": "[1]", "result": 11, "unit": "µM"}, {"measurement": "EC50", "setting": "Hepatitis C virus", "result": 1.8, "unit": "µM"}, {"measurement": "Ratio CC50/EC50", "setting": "[2]", "result": 6.4}]}, {"compound": "COc1cccc2cc(CSc3nc4cccnc4[nH]3)c(=O)oc12", "values": [{"measurement": "CC50 at 72 h", "setting": "[1]", "result": 30, "unit": "µM"}, {"measurement": "EC50", "setting": "Hepatitis C virus", "result": 11, "unit": "µM"}, {"measurement": "Ratio CC50/EC50", "setting": "[2]", "result": 2.8}]}, {"compound": "O=c1oc2ccccc2cc1CSc1nc2cc(Cl)c(Cl)cc2[nH]1", "values": [{"measurement": "CC50 at 72 h", "setting": "[1]", "result": 74, "unit": "µM"}, {"measurement": "EC50", "setting": "Hepatitis C virus", "result": 15, "unit": "µM"}, {"measurement": "Ratio CC50/EC50", "setting": "[2]", "result": 4.9}]}, {"compound": "COc1cccc2cc(CSc3nc4ccccc4o3)c(=O)oc12", "values": [{"measurement": "CC50 at 72 h", "setting": "[1]", "result": 18, "unit": "µM"}, {"measurement": "EC50", "setting": "Hepatitis C virus", "result": 19, "unit": "µM"}, {"measurement": "Ratio CC50/EC50", "setting": "[2]", "result": 0.96}]}, {"compound": "Fc1ccc2[nH]c(SCc3ccncc3)nc2c1", "values": [{"measurement": "CC50 at 72 h", "setting": "[1]", "result": 196, "unit": "µM"}, {"measurement": "EC50", "setting": "Hepatitis C virus", "result": 184, "unit": "µM"}, {"measurement": "Ratio CC50/EC50", "setting": "[2]", "result": 1.1}]}]}
